Drawing on ChEMBL document CHEMBL5241055, “Angel or Devil ? - CDK8 as the new drug target” (Eur J Med Chem, 2021), this text covers IC50 and Kd for 15 compounds.

What is called IC50 is the concentration that inhibits the measured activity by half. As a reminder, the Kd is the constant that tells how readily two partners part at equilibrium. Low readings indicate tighter binding, high ones weaker binding.

Series [1] is described as follows: Antiproliferative activity against HUVEC cells assessed as inhibition of cell growth. The series is classed as toxicity, cell-based. The following applies: human.
A further series addresses CDK8/Cyclin C (Homo sapiens, UniProt P49336). Description: Inhibition of CDK8/Cyclin C (unknown origin) using RBER-IRStide as substrate by radiometric assay. The series is classed as protein-complex assay.
In the next series the target is Heat shock protein HSP90 (Homo sapiens, UniProt P07900+P08238). Description: Inhibition of HSP90 (unknown origin). The series is classed as protein assay.
Series [2] concerns the target T1, Cyclin-dependent kinase 8 (Homo sapiens, UniProt P49336). Description: Inhibition of CDK8 (unknown origin).
Another series relates to HCT-116. Kind of series: Anticancer activity against human HCT-116 cells assessed as inhibition of cell growth by SRB assay. The series is classed as functional, cell-based. A general note: The SRB assay estimates cell density from bound dye.
Series [3] concerns the target T1, Cyclin-dependent kinase 8. Description: Binding affinity to CDK8 (unknown origin).

Chain of CDK8/Cyclin C (P49336 whole entry): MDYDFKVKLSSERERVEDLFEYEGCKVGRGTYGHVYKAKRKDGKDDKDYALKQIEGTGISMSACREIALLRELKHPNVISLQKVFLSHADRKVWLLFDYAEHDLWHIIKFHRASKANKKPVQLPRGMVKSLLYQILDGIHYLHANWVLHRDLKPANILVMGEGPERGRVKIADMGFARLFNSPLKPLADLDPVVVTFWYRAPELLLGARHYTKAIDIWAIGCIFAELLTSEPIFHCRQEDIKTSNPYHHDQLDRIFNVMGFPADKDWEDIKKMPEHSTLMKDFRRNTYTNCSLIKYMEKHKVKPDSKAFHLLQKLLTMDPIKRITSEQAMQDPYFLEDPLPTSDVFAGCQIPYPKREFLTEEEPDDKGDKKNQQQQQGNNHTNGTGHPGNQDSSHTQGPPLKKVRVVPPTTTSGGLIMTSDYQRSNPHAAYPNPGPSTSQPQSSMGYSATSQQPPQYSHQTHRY
Chain of CDK8/Cyclin C (P24863 whole entry, further chain): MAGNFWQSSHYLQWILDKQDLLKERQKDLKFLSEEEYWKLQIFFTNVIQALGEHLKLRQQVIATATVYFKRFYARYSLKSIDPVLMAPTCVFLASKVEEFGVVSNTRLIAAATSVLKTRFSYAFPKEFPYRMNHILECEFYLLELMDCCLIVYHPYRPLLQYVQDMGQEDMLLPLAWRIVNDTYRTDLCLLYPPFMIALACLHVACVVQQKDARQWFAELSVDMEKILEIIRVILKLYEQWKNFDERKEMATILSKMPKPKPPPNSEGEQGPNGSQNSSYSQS
T1 sequence (P49336 whole entry): as the sequence (P49336 whole entry) above

Turning to `Cc1cnccc1CC[C@@H](C)[C@H]1CC[C@@H]2[C@]1(C)CCC1=CC3=CC[C@@H](N(C)C)C[C@]34CC[C@@]12O4`, the IC50 in series [1] was determined as 350 nM. At CDK8/Cyclin C, `N#Cc1ccc2ncnc(NCCc3ccc4ccccc4c3)c2c1` came in with a half-inhibitory concentration (IC50) of 740 nM.

Turning to `Cc1cccc(Cc2n[nH]c3cc(O)c(C(=O)N4Cc5ccccc5C4)cc23)c1`, the results for the IC50 (at Heat shock protein HSP90; in series [2]) were 110 nM and 15 nM, respectively. In turn, `CNC(=O)c1ccc2[nH]nc(Cc3ccc4c(cnn4C)c3)c2c1` gave an IC50 against Heat shock protein HSP90 above 10000 nM. Take `CC1CN(C)CCC1CCC(C)[C@H]1CC[C@@H]2[C@]1(C)CC=C1C=C3C=C[C@@H](N(C)C)C[C@]34CC[C@@]12O4` (stereo partly specified): in series [1], the IC50 was determined as 1900 nM. For the compound `COc1ccc(/C=N/c2ncc(-c3cc4ccccc4oc3=O)o2)cc1O`, the IC50 with HCT-116 is 71800 nM. For `N#Cc1ccc2ncnc(NCCc3ccccc3)c2c1`, the midpoint of inhibition against CDK8/Cyclin C, the IC50, lay at 640 nM. In series [3], `Cc1ccc(-n2nc(C(C)(C)C)cc2NC(N)=O)cc1` showed a Kd of 3240 nM. For the compound `CC1CN(C)CCC1CC[C@@H](C)[C@H]1CC[C@@H]2[C@]1(C)CCC1=CC3=CC[C@@H](N(C)C)C[C@]34CC[C@@]12O4` (stereo partly specified), in series [1], the IC50 amounted to 450 nM. The same measure, in the same setting: the same measure for `Cc1cnccc1/C=C/[C@@H](C)[C@H]1CC[C@@H]2[C@]1(C)CCC1=CC3=CC[C@@H](N(C)C)C[C@]34CC[C@@]12O4`: 800 nM. At CDK8/Cyclin C, `CCCNc1ncnc2ccc(Br)cc12` gave an IC50 of 6100 nM. On to `CN(C)[C@H]1C[C@@]23CC[C@@]4(O2)C(=CC[C@]2(C)[C@@H](c5ccc6ccncc6c5)C(=O)C[C@H]24)C=C3[C@@H](O)[C@@H]1O`, for which the IC50 in series [1] turned out to be 19 nM. The same measure, in the same setting: next, `CN(C)[C@@H]1C=CC2=CC3=CC[C@]4(C)[C@@H](c5ccc6ccncc6c5)CC[C@H]4[C@@]34CC[C@]2(C1)O4`: 8 nM; `CN(C)[C@H]1C[C@@]23CC[C@@]4(O2)C(=CC[C@@]2(C)[C@H]4C[C@H](O)[C@@H]2c2ccc4ccncc4c2)C=C3[C@@H](O)[C@@H]1O`: 1100 nM. Same read-out and setting: next, `CN(C)[C@H]1C[C@@]23CC[C@@]4(O2)C(=CC[C@@]2(C)[C@H]4CC(=O)[C@]2(O)c2ccc4ccncc4c2)C=C3[C@@H](O)[C@@H]1O`: 150 nM.
